In BindingDB's records for PubMed 11454905 (Eli Lilly, 2001):
pKi: −log10 of the molar value. Residues, ends and D or L forms follow the SMILES beside them.

Molecular target: Metabotropic glutamate receptor 3 (Rattus norvegicus, UniProt P31422)
Sequence (P31422 whole entry): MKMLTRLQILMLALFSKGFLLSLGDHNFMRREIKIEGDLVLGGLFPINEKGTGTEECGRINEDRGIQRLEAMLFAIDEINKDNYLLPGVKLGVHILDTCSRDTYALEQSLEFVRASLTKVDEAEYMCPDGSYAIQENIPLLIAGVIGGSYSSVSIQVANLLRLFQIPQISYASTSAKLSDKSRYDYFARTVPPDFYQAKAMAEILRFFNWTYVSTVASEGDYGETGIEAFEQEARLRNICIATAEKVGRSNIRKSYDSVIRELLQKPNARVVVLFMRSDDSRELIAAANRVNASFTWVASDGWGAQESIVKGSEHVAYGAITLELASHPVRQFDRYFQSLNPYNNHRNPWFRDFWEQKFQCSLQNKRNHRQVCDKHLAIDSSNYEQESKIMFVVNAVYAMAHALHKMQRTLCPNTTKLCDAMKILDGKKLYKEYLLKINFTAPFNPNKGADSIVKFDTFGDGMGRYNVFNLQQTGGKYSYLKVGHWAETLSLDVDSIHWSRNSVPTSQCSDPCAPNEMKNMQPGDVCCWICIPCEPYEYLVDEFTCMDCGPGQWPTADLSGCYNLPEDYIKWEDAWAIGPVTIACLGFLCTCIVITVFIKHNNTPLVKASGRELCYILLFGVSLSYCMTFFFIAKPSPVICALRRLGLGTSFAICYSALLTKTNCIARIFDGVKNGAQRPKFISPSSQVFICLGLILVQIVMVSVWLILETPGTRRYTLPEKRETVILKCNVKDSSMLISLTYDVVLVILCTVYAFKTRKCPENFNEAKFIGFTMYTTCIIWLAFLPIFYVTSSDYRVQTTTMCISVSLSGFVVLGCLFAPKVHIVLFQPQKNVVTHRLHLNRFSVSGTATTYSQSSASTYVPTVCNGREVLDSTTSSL

Row | SMILES | pKi
1 | N[C@@H](CCP(=O)(O)O)C(=O)O | < 5.00
2 | CC(N)(C(=O)O)c1ccc(P(=O)(O)O)cc1 (configuration not stated) | < 5.00
3 | O=C(O)[C@H]1[C@H]2CN[C@H](C(=O)O)[C@H]21 | < 5.00
4 | C[C@@](N)(C(=O)O)c1ccc(C(=O)O)cc1 (racemic) | < 5.00
5 | N[C@@]1(C(=O)O)CC[C@H](C(=O)O)C1 [1S, 3R-ACPD] | < 5.00
6 | N[C@@H](Cn1oc(=O)[nH]c1=O)C(=O)O [2-amino-3-(3,5-dioxo[1,2,4]oxadiazolidin-2-yl)propionic acid] | < 5.00
7 | N[C@@]1(C(=O)O)CN[C@@H](C(=O)O)C1 [2R, 4R-APDC] | 5.56
8 | N[C@@]1(C(=O)O)CC[C@H](CC(=O)O)C1 [(1S,3S)-HOMO-ACPD] | 5.06
9 | N[C@@]1(C(=O)O)CC[C@H]2[C@H](C(=O)O)[C@H]21 [(2S,6S)-2-Amino-bicyclo[3.1.0]hexane-2,6-dicarboxylic acid] | < 5.00
10 | NC(C(=O)O)c1ccc(P(=O)(O)O)cc1 (configuration not stated) [Amino-(4-phosphono-phenyl)-acetic acid(RS-PPG)] | < 5.00
11 | N[C@H](CP(=O)(O)O)C(=O)O [CAS_23052-80-4] | < 5.00
12 | Nc1nc(O)c2ncn(COC(CO)CO)c2n1 [CAS_82410-32-0] | < 5.00
13 | NC(Cn1cnc2c(=O)[nH]c(=O)[nH]c21)(C(=O)O)C1CC1C(=O)O (configuration not stated) [CAS_5311260] | 9.10
14 | N[C@H](C(=O)O)C1[C@@H](C(=O)O)[C@@H]1C(=O)O (some centres not stated) [DCG-IV] | 7.21
15 | N[C@@H](CC(=O)O)C(=O)O [L-Aspartic acid, 2] | < 5.00
16 | N[C@H](C(=O)O)[C@H]1C[C@H]1C(=O)O [L-CCG-IV] | 6.48
17 | N[C@@H](CCC(=O)O)C(=O)O [L-Glutamic acid] | < 5.00
18 | N[C@@H](C[C@@H](CCCC(c1ccccc1)c1ccccc1)C(=O)O)C(=O)O [LY307452] | 5.70
19 | N[C@@]1(C(=O)O)CO[C@H]2[C@H](C(=O)O)[C@H]21 [LY379268] | 8.19
20 | CC(=O)N[C@@H](CC(=O)O)C(=O)N[C@@H](CCC(=O)O)C(=O)O [[3H]NAAG] (Ac-Asp-Glu-OH) | < 5.00
21 | NC(CCC(=O)O)C(=O)O (configuration not stated) [glutamic acid dianion] | 7.05
22 | O=C(O)[C@H]1CN[C@H](C(=O)O)C1 [t-PDC] | < 5.00
